Experimental data published in article PMC10707468, “Pharmacokinetics of Novel Dopamine Transporter Inhibitor CE-123 and Modafinil with a Focus on Central Nervous System Distribution” (International Journal of Molecular Sciences, 2023).

Experiments:
[1] = tested on: male Sprague-Dawley rats; design: method as in PMID 29230168, PMID 29410048, PMID 33940050; settings: cited from earlier work
[2] = tested on: cerebEND in vitro model of the blood–brain barrier; settings: cerebEND; cited from earlier work
[3] = In vivo rat tissue biodistribution / neuroPK study, 4 h intravenous constant infusion; design: species or system Sprague-Dawley rats; settings: for metabolite detection in rat samples: after 4 h iv infusion 20 mg/kg of parent
Protocol: The results are summarized in Figure 4 and Table S2 within Supplementary Materials.
In order to minimize the usage of animals and gain high confidence in the tissue distribution, a 4 h constant intravenous infusion study was designed based on the systemic pharmacokinetic parameters determined elsewhere. The catheters were surgically implanted a day before the PK experiment. The rats (n = 3 per compound) were then individually placed into a CMA 120 system (CMA, Solna, Sweden). […] A dose of 20 mg/kg was administered as a combination of an initial short 10 min infusion as a loading dose followed by a constant infusion up to 4 h, targeting a steady-state total plasma concentration of around 1000 ng/mL for each compound (based on the pilot study results). Blood was collected into heparinized Eppendorf tubes via a femoral artery catheter at 0 (before infusion starts) 1, 2, 3, and 4 h after the infusion started and immediately centrifuged at 10,000 rpm for 5 min at +4 °C. Plasma was then collected and kept at −20 °C. At 4 h, the rats were anesthetized via inhalation of 2.5% isoflurane (Abbot Scandinavia, Solna, Sweden), balanced with 1.5 L/min oxygen, after which the terminal blood and tissue samples were collected. […] The tissue samples (brain, spinal cord, liver, and kidney) were rapidly removed, pre-weighed into a 2 mL hard tissue homogenizing tube with mini-beads, and subsequently homogenized in 2 volumes of MQ water using a 4-Place Bead Mill Homogenizer (VWR, Stockholm, Sweden) at the maximal speed for 2 min and thereafter kept at +4 °C. The plasma and tissue homogenate samples were stored at −20 °C until LC–MS analysis.
For all the rat plasma and CSF samples, an aliquot of 50 µL was spiked with 50 µL of 4% PA in water containing the IS solution to disrupt the drug–protein binding. For all rat tissue samples (brain, spinal cord, liver, and kidney), an aliquot of 50 µL was spiked with 50 µL ice-cold ACN containing the IS solution for protein precipitation. The samples were vortexed and spun down for 10 min (3000× g, 4 °C) and 25 µL of clear supernatant was diluted with 225 µL 0.1% FA in water to achieve 10% of ACN in the solution. SPE clean-up was performed using an Oasis PRiME HLB µElution 96-well plate, 3 mg (Waters Corporation, Vienna, Austria). The SPE cartridges were preconditioned and equilibrated with 1 × 200 µL ACN and 0.1% FA in water each. The samples were loaded onto the cartridges and washed with 2 × 200 µL 0.1% FA in water and 1 × 200 µL ACN/0.1% FA in water 10:90 (v:v). The analytes were eluted from the SPE cartridge into a collection plate with 2 × 25 µL ACN/0.1% FA in water 70:30 (v:v). All the samples were diluted with 50 µL of 0.1% FA in water and 10 µL of sample was injected onto the LC–HRMS system.
All samples, blanks, standards, and quality control samples in the respective matrices were analyzed on a UHPLC system (Dionex UltiMate 3000 RSLC series system, Thermo Fisher Scientific, Inc., Dreieich, Germany) coupled with a high-resolution mass spectrometer (maXis HD Q-TOF, Bruker Daltonics, Bremen, Germany) equipped with a heated electrospray ionization (ESI) source. Reversed-phase chromatographic separation was performed on a Kinetex Phenyl-Hexyl column (2.6 µm, 2.1 × 50 mm, Phenomenex, Torrance, CA, USA), equipped with a precolumn (2.6 µm, Phenomenex, Torrance, CA, USA), at a flow rate of 0.4 mL/min. Eluent A was water containing 0.1% FA and eluent B ACN. A multi-step gradient was optimized as follows: the initial mobile phase composition (5% eluent B) was held constant for 1 min, followed by a linear increase to 30% eluent B until minute 1.5, to 40% eluent B until minute 5.5, and to 95% eluent B until minute 6. After a hold time of 2 min, the column was re-equilibrated for 2.5 min at the initial conditions (5% eluent B). The column compartment and the autosampler were maintained at 40 °C and at 8 °C, respectively. […]

[4] = In vitro metabolic stability in human liver microsomes; type: in vitro ADME; settings: R-modafinil 1, 5, 10, 50 µM
Protocol: An in vitro metabolism assay to study the phase I metabolism in the HLMs was in-house-developed. Optimization of the protocol included the test compound concentration (1, 5, 10 m and 50 µM) and extraction solvents (ACN and MeOH). […] The metabolic assay was initiated by the addition of 10 mM NADPH to the reaction solution and terminated after 0, 2.5, 5, 15, 30, 45, and 60 min via the addition of 200 µL of ice-cold MeOH containing the IS solution. The samples were than vortexed and spun for 15 min (14,000× g, 4 °C). The supernatant was collected, evaporated to dryness using the Concentrator plus (Eppendorf), and reconstituted with 100 µL of ACN/0.1% FA in water 10:90 (v:v). To ensure that the assay was performing adequately, the incubation of 1 µM diazepam at the same assay conditions as described was conducted, and the formation of its metabolites temazepam and nordazepam was monitored. A negative control included the absence of NADPH, the test compound, or HLMs during assay. […] The metabolic stability curves of the tested compounds were established by plotting the incubation time against the natural logarithm of the % parent drug remaining. The slope (k) of the linear part was utilized for the in vitro half-life (t1/2, min) as ln2/k. The V (µL/mg) was calculated as the volume of the reaction solution (100 µL) divided by the protein amount in the incubation (0.5 mg). The protein amount was predetermined by the supplier and the content was checked by using a Pierce™ BCA Protein Assay Kit (Thermo Fisher Scientific, Vienna, Austria) for each freshly opened tube. The intrinsic clearance (CLint, µL/min/mg) was calculated according to the following equation:(7) CLint=0.693/t1/2·V […]

[5] = In vitro plasma stability assay; type: in vitro ADME; settings: rat plasma, 37 °C
Protocol: In vitro plasma stability assay was used in the scope of the validation studies. Briefly, 40 μL of blank rat plasma or blank rat plasma containing 10% DMF as an inhibitor was first pre-warmed for 5 min at 37 °C using a Thermomixer® comfort (Eppendorf, Hamburg, Germany). […] The reaction was terminated after 0, 1, 2, and 4 h, via the addition of 50 μL of ice-cold ACN containing the IS solution. The samples were centrifuged for 10 min at 3000× g at 4 °C. The supernatant of all samples was diluted with 0.1% FA in water, 1:2 (v:v), and 10 µL of the sample was injected onto the LC–HRMS system.

[6] = tested on: CYP1A2; settings: ref Robertson et al. (2000) [72]; cited from earlier work
[7] = tested on: CYP2B6; settings: ref Robertson et al. (2000) [72]; cited from earlier work
[8] = target: CYP2C19 (Homo sapiens, UniProt P33261); settings: in HLMs; ref Robertson et al. (2000) [72]; cited from earlier work
[9] = target: CYP2C9 (Homo sapiens, UniProt P11712); settings: primary cell cultures of human hepatocytes; ref Robertson et al. (2000) [72]; cited from earlier work
CYP2C9, sequence (P11712 whole entry): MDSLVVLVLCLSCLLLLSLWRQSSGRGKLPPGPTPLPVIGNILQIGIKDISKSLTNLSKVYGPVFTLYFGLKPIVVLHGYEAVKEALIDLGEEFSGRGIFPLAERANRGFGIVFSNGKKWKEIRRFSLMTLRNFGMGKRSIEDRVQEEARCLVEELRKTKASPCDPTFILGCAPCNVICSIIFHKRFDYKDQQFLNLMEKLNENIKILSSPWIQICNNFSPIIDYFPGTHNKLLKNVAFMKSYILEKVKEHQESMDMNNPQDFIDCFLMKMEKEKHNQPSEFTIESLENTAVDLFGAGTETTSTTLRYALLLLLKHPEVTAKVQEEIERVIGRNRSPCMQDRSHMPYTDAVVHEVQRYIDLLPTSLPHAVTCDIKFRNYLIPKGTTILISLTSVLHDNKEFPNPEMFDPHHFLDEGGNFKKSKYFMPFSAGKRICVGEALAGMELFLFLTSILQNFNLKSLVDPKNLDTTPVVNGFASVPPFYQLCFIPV

CYP2C19, sequence (P33261 whole entry): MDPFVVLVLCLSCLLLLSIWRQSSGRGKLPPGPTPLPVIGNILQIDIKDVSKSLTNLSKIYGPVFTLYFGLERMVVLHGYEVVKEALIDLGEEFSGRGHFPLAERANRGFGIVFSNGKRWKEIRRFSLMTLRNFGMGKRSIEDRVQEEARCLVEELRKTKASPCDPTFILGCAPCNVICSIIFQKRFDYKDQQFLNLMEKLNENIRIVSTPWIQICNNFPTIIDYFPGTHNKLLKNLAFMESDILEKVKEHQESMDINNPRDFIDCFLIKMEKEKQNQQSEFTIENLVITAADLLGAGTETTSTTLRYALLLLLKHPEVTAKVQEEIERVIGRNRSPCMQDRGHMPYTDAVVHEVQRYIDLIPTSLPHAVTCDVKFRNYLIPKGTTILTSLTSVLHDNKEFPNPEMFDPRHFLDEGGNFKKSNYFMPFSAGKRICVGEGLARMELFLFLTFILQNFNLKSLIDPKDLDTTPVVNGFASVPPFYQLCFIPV

[O-][S+](c1cncs1)C(c1ccccc1)c1ccccc1 (stereo not shown) [CE-123, 5-[(Diphenylmethyl)sulfinyl]thiazole]
cognitive flexibility ([1]; male Sprague-Dawley rats, without impulsive responding, compared to R-modafinil): enhance the cognitive flexibility
memory acquisition and memory retrieval ([1]; rats, doses that did not change locomotor activity): enhance memory acquisition and memory retrieval
ability to cross in vitro model of the BBB [2]: could penetrate the BBB in a similar manner to diazepam

O=C(O)C[S+]([O-])C(c1ccccc1)c1ccccc1 (stereo not shown) [modafinic acid]
metabolite detection in rat samples [3]: detected together in the plasma, CSF, liver, and kidneys
metabolite formation during HLM incubation of R-modafinil [4]: not detected
metabolite detection during plasma incubation of R-modafinil [5]: detected at the 2 and 4 h time points

NC(=O)CS(=O)(=O)C(c1ccccc1)c1ccccc1 [modafinil sulfone]
metabolite detection in rat samples [3]: detected together in the plasma, CSF, liver, and kidneys
detection in rat brain and spinal cord tissue ([3]; after 4 h iv infusion of R-modafinil 20 mg/kg, S/N below LOQ): detected
metabolite formation during HLM incubation of R-modafinil [4]: observed at all concentrations

NC(=O)C[S+]([O-])C(c1ccccc1)c1ccccc1 (stereo not shown) [modafinil, 2-[(Diphenylmethyl)sulfinyl]acetamide]
CYP1A2 induction [6]: modestly induces
CYP2B6 induction [7]: modestly induces
CYP2C19 inhibition [8]: reversible inhibition
CYP2C9 activity [9]: apparent suppression
